Test results published in US9387248B2, “Pharmaceutical composition comprising antibody composition which specifically binds to CCR4” (KYOWA HAKKO KIRIN CO., LTD, priority 2009, dated 2016).

Columns and labels:
[1] = tested on: HH cells grafted into SCID mice; assay: Antitumor effect of anti-CCR4 antibody and Lenalidomide in combination (1), HH cells grafted into SCID mice; format: in vivo, SCID mouse; details: KM8760 20 mg/kg iv Day 0, 7, 14, Lenalidomide 1 mg/kg ip daily Day 0-13
Experimental: (§1) HH cells (human multiple myeloma cell; ATCC No: CRL-2105) were suspended in Dulbecco's phosphate buffered saline without calcium chloride and magnesium chloride (PBS, manufactured by Invitrogen) at a density of 1×10^7 cells/mL, and 100 μL of the suspension was transplanted into the ventral skin of SCID mouse (obtained by Nippon Crea, male). Seven days after the cell transplantation, a diameter of a tumor was measured with calipers, and a tumor volume was calculated using the following formula. Tumor volume=short diameter×short diameter×long diameter×0.5 (Formula)
Individuals having the tumor volume within the range of 41 to 93 mm^3 were selected, and grouped such that the average of tumor volume was to be equal. Then, the following administration groups A to D were arranged. The day of grouping was defined as Day 0.
(§2) A. Negative control group: Administration of medium
B. Group administering KM8760 alone: 20 mg/kg was administered on Day 0, Day 7 and Day 14.
(§3) C. Group administering Lenalidomide alone: 1 mg/kg was administered everyday on Day 0 to Day 13.
(§4) D. Group administering KM8760 and Lenalidomide in combination: the respective agent was administered on the same schedule and at the same dose as each group administering respective agent alone.
(§5) The experiment was conducted with groups each consisting of eight mice. KM8760 was diluted with saline (manufactured by Otsuka Pharmaceutical), and the obtained solution was administered from the tail vein. Lenalidomide was suspended with saline containing 0.5% of methylcellulose and the obtained solution was intraperitoneally administered. The tumor volume was measured chronologically. The antitumor effect was evaluated by comparing the average values of values (V/V0) obtained by dividing the tumor volume on each day of measurement by the tumor volume on Day 0 in each group.
The results of the test for significant differences (One-way ANOVA, Dunnett test) compared with the negative control group are shown in Table 1. In addition, when p<0.05, the value is considered to show a significant difference and is shown with * in the table.
(§6) In the table, * means the case where the actual value of T/C is smaller than the theoretical value.

[2] = tested on: HH cells grafted into SCID mice; assay: Antitumor effect of anti-CCR4 antibody and Lenalidomide in combination (2), HH cells grafted into SCID mice; format: in vivo, SCID mouse; details: KM8760 20 mg/kg iv Day 0, 7, 14, 21, Lenalidomide 1 mg/kg ip daily Day 0-13
Experimental: as §1, with “cell line;” for “cell;”, “2×10^8” for “1×10^7”
Individuals having the tumor volume within the range of 51 to 79 mm^3 were selected, and grouped such that the average of tumor volume was to be equal. Then, the following administration groups A to D were arranged. The day of grouping was defined as Day 0.
as §2
B. Group administering KM8760 alone: 20 mg/kg was administered on Day 0, Day 7, Day 14 and Day 21.
as §3, §4
as §5, with “consisting of twelve mice. KM8760” for “consisting of eight mice. KM8760”, “and the diluent was intraperitoneally” for “and the obtained solution was intraperitoneally”
The result of a test for a significant difference (Steel-Dwass test) between each group administering the respective agent alone and combination administration group is shown in Table 3. In the table, na means not applicable. In addition, when p<0.05, the value is considered to show a significant difference and is shown with * in the table.
as §6

[3] = tested on: HH cells; assay: ADCC activity of KM8760 with Lenalidomide-treated hPBMC effector cells, 51Cr release; format: cell-based, human; details: hPBMC effector cells treated with 0.1, 1 or 10 μmol/L Lenalidomide for one, three or five days; effector:target 25:1; KM8760 0.01, 0.1, 1 μg/mL
Experimental: Mononuclear cells (hPBMC) were obtained from peripheral blood from healthy adults by density-gradient centrifugation using Ficoll-paque (manufactured by GE health care). The obtained hPBMC was suspended in RPMI1640 medium containing 10% of FBS and 1% of penicillin/streptomycin solution (manufactured by Nacalai Tesque) (hereinafter referred to as medium). Lenalidomide was added to the suspension to give a final concentration of […]. The obtained suspension was incubated at 37° C. for one, three or five days. Thereafter incubation, hPBMC was washed one time with the medium, and the washed cells were adjusted to give a concentration of about 5×10^6 cells/mL using the medium. The obtained cells were used as effector cells.
After 1×10^6 of HH cells suspended in about 100 μL and 20 μL of ^51Cr solution (NEZ030, manufactured by Perkin-Elmer) were mixed, the mixed solution was incubated at 37° C. for 2 to 4 hours so that HH cells were radiolabeled. […]
On a 96-well U-bottom plate, 50 μL of each of effector cells, target cells and antibody solution was mixed (effector cell:target cell=25:1, final concentration of antibody=0.01, 0.1, or 1 μg/mL) and incubated at 37° C. for 4 hours. […] Herein, CPM was measured using a liquid scintillation counter for microplate (TopCount, manufactured by Perkin-Elmer). […] The rate of cytotoxicity (Lysis %) was calculated using the following formula. […]

Nc1cccc2c1CN(C1CCC(=O)NC1=O)C2=O (stereo not drawn) [Lenalidomide]
T/C (V/V0 of group divided by V/V0 of negative control group) ([1]; Day 0): 1.000 | T/C (V/V0 of group divided by V/V0 of negative control group) ([1]; Day 4): 1.041 | T/C (V/V0 of group divided by V/V0 of negative control group) ([1]; Day 7): 0.918 | T/C (V/V0 of group divided by V/V0 of negative control group) ([1]; Day 10): 0.948 | T/C (V/V0 of group divided by V/V0 of negative control group) ([1]; Day 14): 0.875 | T/C (V/V0 of group divided by V/V0 of negative control group) ([1]; Day 17): 0.750 | T/C (V/V0 of group divided by V/V0 of negative control group) ([1]; Day 21): 0.766 | T/C (V/V0 of group divided by V/V0 of negative control group) ([2]; Day 0): 1.00 | T/C (V/V0 of group divided by V/V0 of negative control group) ([2]; Day 4): 1.05 | T/C (V/V0 of group divided by V/V0 of negative control group) ([2]; Day 7): 0.92 | T/C (V/V0 of group divided by V/V0 of negative control group) ([2]; Day 10): 0.93 | T/C (V/V0 of group divided by V/V0 of negative control group) ([2]; Day 14): 0.75 | T/C (V/V0 of group divided by V/V0 of negative control group) ([2]; Day 19): 0.90 | T/C (V/V0 of group divided by V/V0 of negative control group) ([2]; Day 21): 0.88 | T/C (V/V0 of group divided by V/V0 of negative control group) ([2]; Day 24): 0.95 | T/C (V/V0 of group divided by V/V0 of negative control group) ([2]; Day 28): 0.95 | ADCC activity of KM8760 (cytotoxicity rate, Lysis %, FIG. 3) [3]: clearly enhanced

B1: KM8760: human CDR-grafted anti-CCR4 antibody lacking fucose modification, VH SEQ ID NO:11, VL SEQ ID NO:12 (antibody, V domains shown)
VH: EVQLVESGGDLVQPGRSLRLSCAASGFIFSNYGMSWVRQAPGKGLEWVATISSASTYSYYPDSVKGRFTISRDNAKNSLYLQMNSLRVEDTALYYCGRHSDGNFAFGYWGQGTLVTVSS
VL: DVLMTQSPLSLPVTPGEPASISCRSSRNIVHINGDTYLEWYLQKPGQSPQLLIYKVSNRFSGVPDRFSGSGSGTDFTLKISRVEAEDVGVYYCFQGSLLPWTFGQGTKVEIK
modifications: afucosylated
T/C (V/V0 of group divided by V/V0 of negative control group) ([1]; Day 0): 1.000 | T/C (V/V0 of group divided by V/V0 of negative control group) ([1]; Day 4): 0.910 | T/C (V/V0 of group divided by V/V0 of negative control group) ([1]; Day 7): 0.764 | T/C (V/V0 of group divided by V/V0 of negative control group) ([1]; Day 10): 0.750 | T/C (V/V0 of group divided by V/V0 of negative control group) ([1]; Day 14): 0.691 | T/C (V/V0 of group divided by V/V0 of negative control group) ([1]; Day 17): 0.652 | T/C (V/V0 of group divided by V/V0 of negative control group) ([1]; Day 21): 0.639 | T/C (V/V0 of group divided by V/V0 of negative control group) ([2]; Day 0): 1.00 | T/C (V/V0 of group divided by V/V0 of negative control group) ([2]; Day 4): 0.89 | T/C (V/V0 of group divided by V/V0 of negative control group) ([2]; Day 7): 0.71 | T/C (V/V0 of group divided by V/V0 of negative control group) ([2]; Day 10): 0.62 | T/C (V/V0 of group divided by V/V0 of negative control group) ([2]; Day 14): 0.54 | T/C (V/V0 of group divided by V/V0 of negative control group) ([2]; Day 19): 0.54 | T/C (V/V0 of group divided by V/V0 of negative control group) ([2]; Day 21): 0.54 | T/C (V/V0 of group divided by V/V0 of negative control group) ([2]; Day 24): 0.55 | T/C (V/V0 of group divided by V/V0 of negative control group) ([2]; Day 28): 0.53
